System: collagen
Experiment: Shrinkage temperature testing of pericardial tissue fixed (cross-linked) in EGCG/PBS
Conditions: for Shrinkage Temperature: pH 7.42, 37° C., fresh tissue control 62.6 +/− 0.6
Method: A 7 cm×7 cm piece of pericardial tissue was fixed in 40 ml of 0.5% EGCG/phosphate buffered saline (PBS), pH 7.42 in a 100 mm petri dish at 37° C., 82 rpm shaking speed, for 15 min. After 15 minutes, the tissue was quickly rinsed with PBS. Three samples were cut out for immediate shrinkage temperature testing (Group A). Shrinkage temperature can be an indication of the stability of the tissue. Increased shrinkage temperature is associated with an increased resistance to degradation. An additional 7 cm×7 cm piece of pericardial tissue was fixed in 40 ml of 0.5% EGCG/PBS, pH 7.42 in a 100 mm petri dish at 37° C. for 48 hours and quickly rinsed in PBS for 15 minutes. Six samples were cut out for shrinkage temperature testing (Group B). Six samples of fresh pericardial tissue were also cut for shrinkage temperature testing (Group C—Control Group).

| Compound | Shrinkage Temperature (Group A: pericardial tissue cross-linked for 15 min in 0.5% EGCG/PBS) | Shrinkage Temperature (Group B: pericardial tissue cross-linked for 48 hours in 0.5% EGCG/PBS) | Stability of collagen via cross-linking (within 15 minutes of application under physiological conditions) |
| --- | --- | --- | --- |
| O=C(O[C@@H]1Cc2c(O)cc(O)cc2O[C@@H]1c1cc(O)c(O)c(O)c1)c1cc(O)c(O)c(O)c1 [EGCG, epigallocatechin gallate] | 72.2 +/− 0.5 °C | 86.3 +/− 0.6 °C |  |
| Catechin |  |  | increases the stability of collagen |

Source: patent US20090155337A1, “METHOD AND AGENT FOR IN-SITU STABILIZATION OF VASCULAR TISSUE” (ENDOLOGIX, INC., priority 2007, published 2009)
